From article PMC6478789, “A chemical toolbox for the study of bromodomains and epigenetic signaling” (Nature Communications, 2019)
Like-named read-outs stand apart in the source and are kept apart here.

Key:
[1] = target: BRDT(2) (Homo sapiens, UniProt Q58F21); set-up: purchased; method as in ref 7 (suppl.); settings: ITC data; ref 7 (suppl.); cited from earlier work
[2] = target: MYST3 (Homo sapiens, UniProt Q92794); test: Histone acetyltransferase (HAT) activity assay; type: biochemical;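 further: selectivity screen of bromodomain probe compounds across a panel of histone acetyltransferases, read out as enzyme activity in %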
Sequence of MYST3 (Q92794 whole entry, species assumed): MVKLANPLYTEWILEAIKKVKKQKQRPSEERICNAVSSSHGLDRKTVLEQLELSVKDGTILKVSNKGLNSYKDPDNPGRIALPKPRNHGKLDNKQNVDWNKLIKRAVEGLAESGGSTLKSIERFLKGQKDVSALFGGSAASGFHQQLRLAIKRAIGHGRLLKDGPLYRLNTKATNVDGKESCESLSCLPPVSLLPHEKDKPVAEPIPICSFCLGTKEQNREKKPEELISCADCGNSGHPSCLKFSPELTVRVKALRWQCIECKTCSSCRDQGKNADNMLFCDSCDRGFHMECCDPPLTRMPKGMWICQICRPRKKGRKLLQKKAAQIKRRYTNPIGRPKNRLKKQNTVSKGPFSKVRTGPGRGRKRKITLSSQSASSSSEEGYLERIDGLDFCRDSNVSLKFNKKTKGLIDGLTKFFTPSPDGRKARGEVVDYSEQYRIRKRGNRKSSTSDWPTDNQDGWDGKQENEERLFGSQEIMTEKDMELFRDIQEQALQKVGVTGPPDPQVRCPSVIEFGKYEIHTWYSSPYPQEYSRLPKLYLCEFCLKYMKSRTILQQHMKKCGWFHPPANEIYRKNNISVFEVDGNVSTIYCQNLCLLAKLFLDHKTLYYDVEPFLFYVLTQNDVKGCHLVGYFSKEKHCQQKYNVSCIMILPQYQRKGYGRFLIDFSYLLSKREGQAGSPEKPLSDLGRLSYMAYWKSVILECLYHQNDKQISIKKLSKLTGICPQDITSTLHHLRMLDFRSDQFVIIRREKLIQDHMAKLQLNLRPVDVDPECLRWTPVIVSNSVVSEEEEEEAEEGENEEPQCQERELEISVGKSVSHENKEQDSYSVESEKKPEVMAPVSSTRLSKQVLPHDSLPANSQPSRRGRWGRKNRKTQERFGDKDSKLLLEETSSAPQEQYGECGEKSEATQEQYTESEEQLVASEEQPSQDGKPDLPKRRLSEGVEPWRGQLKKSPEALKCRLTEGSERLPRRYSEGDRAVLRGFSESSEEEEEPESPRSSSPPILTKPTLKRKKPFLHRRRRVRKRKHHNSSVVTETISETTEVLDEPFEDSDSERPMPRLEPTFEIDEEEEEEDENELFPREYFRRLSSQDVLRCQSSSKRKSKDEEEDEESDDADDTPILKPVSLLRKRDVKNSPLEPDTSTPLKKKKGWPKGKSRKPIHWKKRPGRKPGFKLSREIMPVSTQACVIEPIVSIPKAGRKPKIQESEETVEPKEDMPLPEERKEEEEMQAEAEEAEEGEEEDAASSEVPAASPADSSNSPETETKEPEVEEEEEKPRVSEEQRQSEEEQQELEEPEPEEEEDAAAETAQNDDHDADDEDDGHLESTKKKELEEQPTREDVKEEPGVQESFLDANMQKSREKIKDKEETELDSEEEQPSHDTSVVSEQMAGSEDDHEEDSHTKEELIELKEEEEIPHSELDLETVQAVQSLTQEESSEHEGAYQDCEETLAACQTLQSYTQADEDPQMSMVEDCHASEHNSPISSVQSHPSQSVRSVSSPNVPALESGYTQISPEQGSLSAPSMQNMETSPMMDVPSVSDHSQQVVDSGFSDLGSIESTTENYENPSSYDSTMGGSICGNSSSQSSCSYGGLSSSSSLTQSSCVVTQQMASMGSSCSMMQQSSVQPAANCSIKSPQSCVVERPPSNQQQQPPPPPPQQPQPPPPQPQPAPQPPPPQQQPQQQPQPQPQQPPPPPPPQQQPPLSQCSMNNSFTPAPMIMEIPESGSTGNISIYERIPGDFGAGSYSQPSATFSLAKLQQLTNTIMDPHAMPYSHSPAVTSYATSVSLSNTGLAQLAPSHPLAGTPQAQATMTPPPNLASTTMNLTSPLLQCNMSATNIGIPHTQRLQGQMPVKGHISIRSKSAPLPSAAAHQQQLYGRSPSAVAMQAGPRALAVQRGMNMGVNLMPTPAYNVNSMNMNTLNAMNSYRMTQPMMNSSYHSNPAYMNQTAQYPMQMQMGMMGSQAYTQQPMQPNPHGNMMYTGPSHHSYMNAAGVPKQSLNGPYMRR

[3] = target: BRD2(2) (Homo sapiens, UniProt P25440); set-up: purchased; method as in ref 7 (suppl.); settings: ITC data; ref 7 (suppl.); cited from earlier work
Sequence of BRD2(2) (P25440 344-453 limits assumed): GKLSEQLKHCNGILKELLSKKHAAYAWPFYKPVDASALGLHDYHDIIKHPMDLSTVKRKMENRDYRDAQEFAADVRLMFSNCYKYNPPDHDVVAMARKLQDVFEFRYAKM

[4] = target: BRD3(1) (Homo sapiens, UniProt Q15059); set-up: purchased; settings: ITC data; ref 7 (suppl.); cited from earlier work
Sequence of BRD3(1) (Q15059 34-140 limits assumed): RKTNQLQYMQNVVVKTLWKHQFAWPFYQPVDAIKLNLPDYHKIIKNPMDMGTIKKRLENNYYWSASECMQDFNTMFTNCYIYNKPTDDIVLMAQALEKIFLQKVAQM

[5] = system: ten TNBC cell lines; test: High-throughput screening of bromodomain inhibitors in TNBC panel (confluency); type: cell-based, human; settings: 3 μM, 7 days
Description: Fig. 6 BRD inhibitors leverage metabolic adaptations induced by glucose transporter I (GLUT1) inhibition in TNBC. a BRD inhibitor screening across ten TNBC cell lines. Cells were treated with indicated BRD inhibitors at 3 μM for 7 days. Confluency was measured using an IncuCyte ZOOM live cell imaging device. Data shown are mean ± s.d. of n = 4 independent cell culture grown and treated cells. A two-sided Student’s t test was used to derive the p-values. b SLC2A1 gene expression in the The Cancer Genome Atlas (TCGA) breast datasets. The cohorts were divided into TNBCs (red) and non-TNBCs (blue) according to PAM50 classification. Gene expression is reported as median-centered expression log2 values. The number of patients (n) per group is indicated. P-values were determined using a Wilcoxon's rank-sum test. c Glucose uptake in MDA-MB-436 cells in response to BAY-876 treatment relative to vehicle. MDA-MB-436 cells were treated with dimethyl sulfoxide (DMSO) or 3 µM BAY-876 for 5 days. […]
TNBC cell lines were seeded in sterile, transparent 384-well plates at 500 cells per well in 50 µl media. […] Cell confluency at 7 days was evaluated using an Incucyte ZOOM live cell imaging device (Essen Bioscence) and analyzed with the Incucyte ZOOM (2016A) software based on phase contrast image.

[6] = system: three TNBC lines; test: Combinatorial screen of BRD inhibitors with or without BAY-876 (confluency); type: cell-based, human; settings: 3 μM probe + 3 μM BAY-876
Description: Fig. 6 BRD inhibitors leverage metabolic adaptations induced by glucose transporter I (GLUT1) inhibition in TNBC. a BRD inhibitor screening across ten TNBC cell lines. Cells were treated with indicated BRD inhibitors at 3 μM for 7 days. Confluency was measured using an IncuCyte ZOOM live cell imaging device. Data shown are mean ± s.d. of n = 4 independent cell culture grown and treated cells. A two-sided Student’s t test was used to derive the p-values. b SLC2A1 gene expression in the The Cancer Genome Atlas (TCGA) breast datasets. The cohorts were divided into TNBCs (red) and non-TNBCs (blue) according to PAM50 classification. Gene expression is reported as median-centered expression log2 values. The number of patients (n) per group is indicated. P-values were determined using a Wilcoxon's rank-sum test. c Glucose uptake in MDA-MB-436 cells in response to BAY-876 treatment relative to vehicle. MDA-MB-436 cells were treated with dimethyl sulfoxide (DMSO) or 3 µM BAY-876 for 5 days. Graph indicates mean, error bars denote s.d. from three independent assays and p-value was computed using the Benjamini-Hochberg t test; ***p < 0.001. d Effects of BAY-876 treatment on the intracellular acetyl-CoA level. Graph indicates mean, error bars denote s.d. from three independent assays and p-value was computed using the Benjamini-Hochberg t test; ***p < 0.001. e Effects of BAY-876 treatment on intracellular NAD^+/NADH level. Graph indicates the mean, error bars denote s.d. from three independent assays and p-value computed using the Benjamini-Hochberg t test; **p < 0.01. f Immunoblot analysis of H3 and H4 acetylation in MDA-MB-436 cells before and after BAY-876 treatment. P-value computed using the Benjamini-Hochberg t test; ***p < 0.001. g Cell growth effects of BAY-876 treatment on three representative cell lines. n.s. not significant. h Combinatorial screening of BRD inhibitors with or without 3 μM BAY-876 across ten TNBC cell lines. Cell confluency was obtained from the endpoint Incucyte scanning. (Left) Heatmap of the combinatorial screening results; (Right) Cell confluency after treatment with three potential BRDi candidates at 3 μM in the presence or absence of 3 μM BAY-876 in three representative cell lines. Graph indicates mean, error bars denote s.d. from three independent assays and p-values were computed using the Benjamini-Hochberg t test; **p < 0.01; ***p < 0.001. Raw data images are available in Supplementary Fig. 4
TNBC cell lines were seeded in sterile, transparent 384-well plates at 500 cells per well in 50 µl media. Chemical probes were delivered in dimethyl sulfoxide (DMSO). Cell confluency at 7 days was evaluated using an Incucyte ZOOM live cell imaging device (Essen Bioscence) and analyzed with the Incucyte ZOOM (2016A) software based on phase contrast image.

[7] = target: BRD3(2) (Homo sapiens, UniProt Q15059); set-up: purchased; settings: ITC data; ref 7 (suppl.); cited from earlier work
Sequence of BRD3(2) (Q15059 306-415 limits assumed): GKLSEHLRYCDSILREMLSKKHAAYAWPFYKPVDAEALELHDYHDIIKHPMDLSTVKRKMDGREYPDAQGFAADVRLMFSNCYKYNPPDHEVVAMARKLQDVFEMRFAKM

[8] = target: T1, HAT1 (Homo sapiens, UniProt O14929); test: Histone acetyltransferase (HAT) activity assay; type: biochemical;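 further: HAT selectivity screen of BRD probe compounds, enzyme activity in % measured with compound at 1 µM and 10 µM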
T1 sequence (O14929 1-419): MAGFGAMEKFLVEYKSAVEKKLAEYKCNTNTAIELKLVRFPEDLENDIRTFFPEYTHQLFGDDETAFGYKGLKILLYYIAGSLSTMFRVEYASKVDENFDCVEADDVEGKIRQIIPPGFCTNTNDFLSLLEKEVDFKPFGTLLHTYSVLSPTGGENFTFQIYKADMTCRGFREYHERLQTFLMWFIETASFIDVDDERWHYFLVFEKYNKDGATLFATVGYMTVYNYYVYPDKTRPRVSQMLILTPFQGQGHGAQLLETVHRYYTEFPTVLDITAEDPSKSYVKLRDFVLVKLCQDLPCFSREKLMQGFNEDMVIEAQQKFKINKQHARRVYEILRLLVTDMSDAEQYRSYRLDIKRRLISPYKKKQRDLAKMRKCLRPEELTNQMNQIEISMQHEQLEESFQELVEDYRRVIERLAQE

[9] = target: BRD2(1) (Homo sapiens, UniProt P25440); set-up: purchased; settings: ITC data; ref 7 (suppl.); cited from earlier work
Sequence of BRD2(1) (P25440 74-180 limits assumed): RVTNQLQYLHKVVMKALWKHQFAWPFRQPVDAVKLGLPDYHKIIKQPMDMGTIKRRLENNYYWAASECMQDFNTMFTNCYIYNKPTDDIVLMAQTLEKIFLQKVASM

[10] = target: T2, MYST1 (Homo sapiens, UniProt Q9H7Z6); test: Histone acetyltransferase (HAT) activity assay; type: biochemical;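 further: selectivity screen across a panel of histone acetyltransferases, with compounds tested at 1 and 10 µM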
T2 sequence (Q9H7Z6 1-458): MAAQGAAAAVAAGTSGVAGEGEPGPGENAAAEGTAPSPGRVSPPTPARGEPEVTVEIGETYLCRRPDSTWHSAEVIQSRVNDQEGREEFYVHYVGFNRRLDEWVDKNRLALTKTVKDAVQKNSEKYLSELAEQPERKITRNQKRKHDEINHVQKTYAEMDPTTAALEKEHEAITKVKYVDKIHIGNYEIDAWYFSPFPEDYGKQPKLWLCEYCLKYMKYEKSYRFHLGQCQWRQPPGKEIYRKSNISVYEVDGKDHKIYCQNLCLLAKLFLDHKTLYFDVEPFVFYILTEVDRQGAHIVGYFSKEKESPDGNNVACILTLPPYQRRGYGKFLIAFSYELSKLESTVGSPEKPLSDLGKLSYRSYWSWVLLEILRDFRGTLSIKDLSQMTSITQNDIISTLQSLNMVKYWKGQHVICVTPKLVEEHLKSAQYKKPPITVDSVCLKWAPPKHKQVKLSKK

[11] = target: EP300 (Homo sapiens, UniProt Q09472); test: Histone acetyltransferase (HAT) activity assay; type: biochemical;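 further: selectivity screen of bromodomain probe compounds against histone acetyltransferases, with enzyme activity given in percent for compounds tested at 1 and 10 µM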
Sequence of EP300 (Q09472 whole entry, species assumed): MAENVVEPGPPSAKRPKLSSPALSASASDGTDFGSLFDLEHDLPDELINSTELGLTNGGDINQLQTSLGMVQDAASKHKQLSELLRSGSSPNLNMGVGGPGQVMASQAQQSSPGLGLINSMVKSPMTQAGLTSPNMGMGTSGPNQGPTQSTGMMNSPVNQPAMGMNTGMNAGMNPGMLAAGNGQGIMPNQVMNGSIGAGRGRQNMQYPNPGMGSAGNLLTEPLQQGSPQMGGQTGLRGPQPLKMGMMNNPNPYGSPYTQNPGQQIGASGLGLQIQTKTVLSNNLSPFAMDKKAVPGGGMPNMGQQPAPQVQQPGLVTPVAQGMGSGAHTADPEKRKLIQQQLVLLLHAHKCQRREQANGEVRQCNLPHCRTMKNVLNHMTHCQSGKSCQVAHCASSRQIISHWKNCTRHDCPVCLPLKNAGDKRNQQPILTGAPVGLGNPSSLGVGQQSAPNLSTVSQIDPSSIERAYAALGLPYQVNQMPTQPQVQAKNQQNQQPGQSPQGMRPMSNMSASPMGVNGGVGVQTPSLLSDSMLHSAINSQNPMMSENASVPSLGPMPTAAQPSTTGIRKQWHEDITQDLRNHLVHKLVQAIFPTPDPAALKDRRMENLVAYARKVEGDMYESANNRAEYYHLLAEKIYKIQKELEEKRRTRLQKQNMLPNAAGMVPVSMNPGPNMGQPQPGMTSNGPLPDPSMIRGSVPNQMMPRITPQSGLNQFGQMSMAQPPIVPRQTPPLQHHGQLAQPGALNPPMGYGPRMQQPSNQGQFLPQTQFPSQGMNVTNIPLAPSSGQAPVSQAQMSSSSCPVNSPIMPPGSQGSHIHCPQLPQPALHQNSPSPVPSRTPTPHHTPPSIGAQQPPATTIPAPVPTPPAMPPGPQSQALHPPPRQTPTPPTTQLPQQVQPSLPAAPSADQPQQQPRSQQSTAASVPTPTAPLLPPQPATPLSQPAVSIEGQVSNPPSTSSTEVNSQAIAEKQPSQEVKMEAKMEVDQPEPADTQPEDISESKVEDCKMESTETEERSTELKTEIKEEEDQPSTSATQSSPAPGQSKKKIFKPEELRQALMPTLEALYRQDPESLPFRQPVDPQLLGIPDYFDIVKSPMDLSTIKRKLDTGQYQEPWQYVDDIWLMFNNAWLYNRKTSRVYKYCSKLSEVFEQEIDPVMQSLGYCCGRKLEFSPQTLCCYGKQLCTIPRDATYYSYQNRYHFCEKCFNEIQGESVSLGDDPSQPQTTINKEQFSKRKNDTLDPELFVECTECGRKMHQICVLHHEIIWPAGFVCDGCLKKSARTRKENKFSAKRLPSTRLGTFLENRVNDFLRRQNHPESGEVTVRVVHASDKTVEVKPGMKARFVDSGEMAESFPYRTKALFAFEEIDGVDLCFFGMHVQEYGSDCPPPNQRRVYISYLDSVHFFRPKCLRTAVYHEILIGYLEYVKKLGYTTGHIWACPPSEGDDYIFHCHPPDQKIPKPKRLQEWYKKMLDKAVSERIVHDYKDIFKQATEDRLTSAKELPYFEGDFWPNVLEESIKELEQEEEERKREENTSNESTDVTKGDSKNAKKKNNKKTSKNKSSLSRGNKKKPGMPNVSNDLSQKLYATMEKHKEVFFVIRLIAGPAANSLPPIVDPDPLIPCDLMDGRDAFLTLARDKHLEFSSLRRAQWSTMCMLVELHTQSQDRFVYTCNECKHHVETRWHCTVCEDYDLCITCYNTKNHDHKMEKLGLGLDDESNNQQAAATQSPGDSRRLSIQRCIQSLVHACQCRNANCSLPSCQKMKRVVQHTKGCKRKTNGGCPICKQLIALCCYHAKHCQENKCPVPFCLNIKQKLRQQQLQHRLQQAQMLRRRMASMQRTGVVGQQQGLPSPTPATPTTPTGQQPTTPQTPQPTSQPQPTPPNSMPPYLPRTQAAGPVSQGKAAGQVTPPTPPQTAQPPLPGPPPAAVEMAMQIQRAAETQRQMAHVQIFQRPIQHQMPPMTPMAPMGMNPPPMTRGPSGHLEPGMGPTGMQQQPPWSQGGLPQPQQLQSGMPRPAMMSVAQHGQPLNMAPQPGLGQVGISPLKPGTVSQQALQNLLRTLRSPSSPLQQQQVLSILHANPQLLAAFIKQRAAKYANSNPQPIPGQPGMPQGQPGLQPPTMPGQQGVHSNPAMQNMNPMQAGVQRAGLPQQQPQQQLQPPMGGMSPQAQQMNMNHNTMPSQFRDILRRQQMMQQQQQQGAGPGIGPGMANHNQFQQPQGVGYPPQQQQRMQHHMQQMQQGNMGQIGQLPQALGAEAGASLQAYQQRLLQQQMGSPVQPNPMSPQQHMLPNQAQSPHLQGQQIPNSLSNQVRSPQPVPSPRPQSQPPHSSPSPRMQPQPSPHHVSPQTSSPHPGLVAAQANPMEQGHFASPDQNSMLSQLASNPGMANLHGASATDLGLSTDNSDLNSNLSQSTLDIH

[12] = target: GCN5L2 (Homo sapiens, UniProt Q92830); test: Histone acetyltransferase (HAT) activity assay; type: biochemical;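 further: selectivity screen of BRD probe compounds across a panel of histone acetyltransferases, HAT activity in % with compound at 1 or 10 µM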
[13] = target: BRDT(1) (Homo sapiens, UniProt Q58F21); set-up: purchased; settings: ITC data; ref 7 (suppl.); cited from earlier work
[14] = target: CBP/p300; set-up: method as in ref 10 (suppl.); settings: ref 10 (suppl.); read-out: BRET (KD (nM) column); cited from earlier work
[15] = target: CBP/p300; set-up: method as in ref 10 (suppl.); settings: ref 10 (suppl.); read-out: TR-FRET (KD (nM) column); cited from earlier work
[16] = system: CBP/p300 over BRD4; settings: cited from earlier work

| SMILES | HATs Activity (%) ([2]; 1µM) | HATs Activity (%) ([2]; 10µM) | viability in combination with BAY-876 [6] | HATs Activity (%) ([8]; 1µM) | HATs Activity (%) ([8]; 10µM) | HATs Activity (%) ([10]; 1µM) | HATs Activity (%) ([10]; 10µM) | HATs Activity (%) ([11]; 1µM) | HATs Activity (%) ([11]; 10µM) | HATs Activity (%) ([12]; 1µM) | HATs Activity (%) ([12]; 10µM) | further results |
| --- | --- | --- | --- | --- | --- | --- | --- | --- | --- | --- | --- | --- |
| COc1ccccc1S(=O)(=O)Nc1ccc2c(c1)CN(C)C(=O)N2 [PFI-1] | 105 | 86 | significant decrease in viability | 102 | 93 | 101 | 95 | 99 | 100 | 96 | 93 | Kd [1]: 221 nM; Kd [3]: 144 nM; Kd [4]: 80 nM; anti-proliferative effect (confluency) [5]: strong anti-proliferative effects; Kd [7]: 76 nM; Kd [9]: 108 nM; Kd [13]: 85 nM |
| CNC(=O)N1CCc2c(c(N3CCCc4cc(-c5cnn(C)c5)c(C(F)F)cc43)nn2C2CCOCC2)C1 [GNE-781] |  |  |  |  |  |  |  |  |  |  |  | Kd [14]: 6.2 nM; Kd [15]: 0.94 nM; selectivity over BRD4 for CBP/p300 [16]: 650 fold |
| CCn1cc(-c2cccc(C(F)(F)F)c2)c2sc(C(=N)NC3CCS(=O)(=O)CC3)cc2c1=O [I-BRD9] | 101 | 99 | significant decrease in viability | 103 | 101 | 104 | 104 | 96 | 99 | 104 | 102 | combination effect with BAY-876 across the three cell lines [6]: efficacy in only one of the three tested TNBC lines |
